Measurements: patent US7345049B2, “Phenylalanine derivatives” (Ajinomoto Co., Inc., priority 2003, dated 2008)
Structures can show the parent of a compound that is named as a salt.

molecular target: T1, VCAM-1/α4β1 integrin binding (Homo sapiens, UniProt P05556+P13612); experiment: Assay of antagonistic activity to VCAM-1/α4β1 integrin binding under the existence of blood serum (Jurkat cell adhesion to VCAM-1/Fc); assay type: cell-based; details: Jurkat cells, recombinant human VCAM-1/Fc, 50% human blood serum
T1 construct: Jurkat (ATCC TIB-152), known to express integrin α4β1; endogenous in cells; host or cells: Jurkat (ATCC TIB-152)
T1 sequence (P13612 34-1032): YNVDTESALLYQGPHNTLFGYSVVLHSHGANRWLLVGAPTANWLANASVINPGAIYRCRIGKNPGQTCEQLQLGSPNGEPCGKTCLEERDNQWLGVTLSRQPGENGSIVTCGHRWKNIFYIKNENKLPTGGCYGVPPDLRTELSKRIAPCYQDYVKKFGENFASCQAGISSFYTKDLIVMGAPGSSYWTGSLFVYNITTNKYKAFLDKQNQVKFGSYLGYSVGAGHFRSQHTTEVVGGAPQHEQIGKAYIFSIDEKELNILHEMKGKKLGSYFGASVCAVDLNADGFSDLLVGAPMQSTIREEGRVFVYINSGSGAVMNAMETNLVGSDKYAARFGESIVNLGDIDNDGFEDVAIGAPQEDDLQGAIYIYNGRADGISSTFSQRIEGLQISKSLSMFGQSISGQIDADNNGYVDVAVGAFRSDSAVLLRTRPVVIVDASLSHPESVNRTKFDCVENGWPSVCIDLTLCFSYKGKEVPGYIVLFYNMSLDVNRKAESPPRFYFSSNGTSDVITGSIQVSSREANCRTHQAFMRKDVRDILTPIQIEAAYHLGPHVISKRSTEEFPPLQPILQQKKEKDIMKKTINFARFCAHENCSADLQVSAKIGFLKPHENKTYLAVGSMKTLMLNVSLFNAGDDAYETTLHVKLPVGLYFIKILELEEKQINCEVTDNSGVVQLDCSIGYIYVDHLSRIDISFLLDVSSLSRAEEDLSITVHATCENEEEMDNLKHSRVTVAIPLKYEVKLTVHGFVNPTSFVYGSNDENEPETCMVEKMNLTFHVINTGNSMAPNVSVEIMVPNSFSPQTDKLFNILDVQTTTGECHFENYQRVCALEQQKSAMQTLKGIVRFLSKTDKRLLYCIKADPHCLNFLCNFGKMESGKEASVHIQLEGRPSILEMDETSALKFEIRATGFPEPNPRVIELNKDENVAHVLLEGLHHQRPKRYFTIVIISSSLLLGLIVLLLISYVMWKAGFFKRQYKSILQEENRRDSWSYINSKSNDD
T1 sequence (P05556 21-798): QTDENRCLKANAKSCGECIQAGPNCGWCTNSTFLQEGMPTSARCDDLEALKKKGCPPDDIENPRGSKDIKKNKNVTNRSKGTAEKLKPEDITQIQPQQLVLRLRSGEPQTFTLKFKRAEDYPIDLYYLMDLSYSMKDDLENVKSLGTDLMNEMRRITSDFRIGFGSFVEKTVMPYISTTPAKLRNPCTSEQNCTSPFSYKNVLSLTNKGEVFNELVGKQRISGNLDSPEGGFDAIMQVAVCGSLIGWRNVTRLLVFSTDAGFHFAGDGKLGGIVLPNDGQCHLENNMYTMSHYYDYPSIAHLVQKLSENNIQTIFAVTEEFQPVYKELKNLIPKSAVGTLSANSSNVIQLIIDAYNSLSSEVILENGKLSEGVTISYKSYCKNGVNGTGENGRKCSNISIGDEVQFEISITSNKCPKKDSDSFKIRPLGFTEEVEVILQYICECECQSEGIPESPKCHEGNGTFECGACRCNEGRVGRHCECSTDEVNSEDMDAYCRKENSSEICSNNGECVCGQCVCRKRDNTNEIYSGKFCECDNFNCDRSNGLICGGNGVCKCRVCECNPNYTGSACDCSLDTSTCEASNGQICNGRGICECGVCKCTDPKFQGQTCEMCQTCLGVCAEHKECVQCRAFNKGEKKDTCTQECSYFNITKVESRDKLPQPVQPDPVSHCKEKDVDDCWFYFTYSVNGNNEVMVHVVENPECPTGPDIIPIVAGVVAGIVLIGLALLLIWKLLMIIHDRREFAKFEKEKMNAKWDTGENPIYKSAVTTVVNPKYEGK
Protocol: Assay of Antagonistic Activity to VCAM-1/α4β1 Integrin Binding Under the Existence of Blood Serum
The capacity of a test substance antagonistic to the binding of cell strain of human T cells, Jurkat (ATCC TIB-152), known to express integrin α4β1, to VCAM-1 was determined.
Fifty μl/well of a solution (500 ng/ml) of recombinant human VCAM-1/Fc (R & D systems) diluted with buffer A (0.1 M NaHCO3, pH 9.6) was added to a 96-well microtiter plate (Nunc Maxisorp). After the incubation at 4° C. overnight and washing once with PBS, a buffer (buffer B) obtained by diluting Block Ace (Snow Brand Milk Products Co., Ltd.) with PBS to ½ concentration was added in an amount of 150 μl/well. After the incubation at room temperature for 2 hours, buffer B was removed and the plate was washed with PBS once.
Jurkat cells were washed with Dulbecco modified Eagle medium (SIGMA, hereinafter referred to as “DMEM”) once. Then, the cells were again suspended in a binding buffer (DMEM containing 20 mM HEPES, 0.1% BSA, 2 mM MnCl2 and 50% human blood serum (Sigma)) to become 1×10^6 cells/mL.
Sixty μl of a test substance of various concentrations obtained by the dilution with the binding buffer was added to a round-bottom, 96-well plate (IWAKI). Immediately thereafter, 60 μl of the Jurkat cells (1×10^6 cells/ml) were added thereto and shaken on a plate shaker (IKA-Labortechnik, IKA-SCHUTTLER MTS-4) at 1000 rpm for 10 seconds. In 120 μL of the cell suspension to which the test substance was added, each 100 μL thereof was transferred on the VCAM-1/Fc-coated plate and incubated in dark place at room temperature for 60 minutes. After the shaking on the plate shaker at 1000 rpm for 30 seconds, the solution was immediately removed. Then, the unbound cells were removed by washing them with PBS once. A buffer C (PBS containing 0.82% Triton X-100) was added to the plate in an amount of 70 μL/well. After the shaking on the plate shaker at 1000 rpm for 5 minutes, the bound Jurkat cells were lysed. After centrifuging the cells on a plate centrifuge (SIGMA 4-15C) at room temperature at 2500 rpm for 5 minutes, 50 μL of supernatant thereof was transferred to a 96-well microtiter plate (Nunc Maxisorp). Each 50 μL of Substrate Buffer (Promega, CytoTox 96 Non-Radioactive Cytotoxicity Assay) was added thereto, shaken on a plate shaker at 1000 rpm for 10 seconds and reacted in dark place at room temperature for 30 minutes. Then, each 50 μL of Stop Solution (Promega, CytoTox 96 Non-Radioactive Cytotoxicity Assay) was added thereto and shaken on a plate shaker at 1000 rpm for 10 seconds. […] The absorbance thus obtained detects an activity of lactate dehydrogenase (LDH) dissolved in the supernatant of each well. Namely, the absorbance is proportional to the number of remaining Jurkat cells on the plate via the binding to VCAM-1. The test was conducted in duplicate and the binding rate of each test substance in various concentrations was determined while the absorbance of the test substance-free well was determined to be 100% and the absorbance of the Jurkat-cell-free well was determined to be 0%. The concentration for the 50% inhibition of binding, IC50, was calculated.

IC50 [nM] | SMILES
1.7 | Cn1c(=O)n(-c2ccc(CC(NC(=O)c3c(Cl)cccc3Cl)C(=O)O)cc2)c(=O)c2cc(N3CCOCC3)ccc21 (stereo not drawn) [Example 1]
22.9 | CN1CCN(c2ccc3c(c2)c(=O)n(-c2ccc(C[C@H](NC(=O)c4c(Cl)cccc4Cl)C(=O)O)cc2)c(=O)n3C)CC1 [Example 2]
14 | CN(C)CCN(C)c1ccc2c(c1)c(=O)n(-c1ccc(C[C@H](NC(=O)c3c(Cl)cccc3Cl)C(=O)O)cc1)c(=O)n2C [Example 4]
10.8 | CCN(CC)CCN(C)c1ccc2c(c1)c(=O)n(-c1ccc(C[C@H](NC(=O)c3c(Cl)cccc3Cl)C(=O)O)cc1)c(=O)n2C [Example 5]
8.9 | CN(C)C1CCN(c2ccc3c(c2)c(=O)n(-c2ccc(C[C@H](NC(=O)c4c(Cl)cccc4Cl)C(=O)O)cc2)c(=O)n3C)C1 (stereo partly drawn) [Example 6]
15.5 | COCCNc1ccc2c(c1)c(=O)n(-c1ccc(C[C@H](NC(=O)c3c(Cl)cccc3Cl)C(=O)O)cc1)c(=O)n2C [Example 10]
5.5 | CN(C)CCN(C)c1cc2c(cc1F)c(=O)n(-c1ccc(C[C@H](NC(=O)c3c(Cl)cccc3Cl)C(=O)O)cc1)c(=O)n2C [Example 13]
5.8 | CCN(CC)CCN(C)c1cc2c(cc1F)c(=O)n(-c1ccc(C[C@H](NC(=O)c3c(Cl)cccc3Cl)C(=O)O)cc1)c(=O)n2C [Example 14]
22.9 | CN1CCN(C)c2cc3c(cc21)c(=O)n(-c1ccc(C[C@H](NC(=O)c2c(Cl)cccc2Cl)C(=O)O)cc1)c(=O)n3C [Example 17]
11.7 | Cn1ncc2c(=O)n(-c3ccc(C[C@H](NC(=O)c4c(Cl)cccc4Cl)C(=O)O)cc3)c(=O)n(C)c21 [Example 18]
23.5 | CCNc1ccc2c(=O)n(-c3ccc(C[C@H](NC(=O)c4c(Cl)cccc4Cl)C(=O)O)cc3)c(=O)n(C)c2c1 [Example 19]
7.9 | Cn1c(=O)n(-c2ccc(C[C@H](NC(=O)c3c(Cl)cccc3Cl)C(=O)O)cc2)c(=O)c2ccc(CN3CCCC3)cc21 [Example 35, N-(2,6-dichlorobenzoyl)-4-[1-methyl-7-(pyrrolidine-1-ylmethyl)-2,4-quinazoline-dione-3-yl]-L-phenylalanine trifluoroacetate]
12.4 | Cn1c(=O)n(-c2ccc(C[C@H](NC(=O)c3c(Cl)cccc3Cl)C(=O)O)cc2)c(=O)c2cc(S(C)(=O)=O)ccc21 [Example 38, N-(2,6-dichlorobenzoyl)-4-[1-methyl-6-(methylsulfonyl)-2,4-quinazoline-dione-3-yl]-L-phenylalanine]
6.5 | Cn1c(=O)n(-c2ccc(C[C@H](NC(=O)c3c(Cl)cccc3Cl)C(=O)O)cc2)c(=O)c2ccc(N3CCOCC3)cc21 [Example 39, N-(2,6-dichlorobenzoyl)-4-[1-methyl-7-(morpholine-4-yl)-2,4-quinazoline-dione-3-yl]-L-phenylalanine trifluoroacetate]
15.7 | Cn1c(=O)n(-c2ccc(C[C@H](NC(=O)c3c(Cl)cccc3Cl)C(=O)O)cc2)c(=O)c2ncccc21 [Example 47, N-(2,6-dichlorobenzoyl)-4-[1-methyl-2,4-dioxo-1,2,3,4-tetrahydro-3-(2H)pyrido[3,2-d]pyrimidinyl]-L-phenylalanine]
15.4 | Cn1c(=O)n(-c2ccc(C[C@H](NC(=O)c3c(Cl)cccc3Cl)C(=O)O)cc2)c(=O)c2cc(C(N)=O)ccc21 [Example 50]
23.3 | Cn1c(=O)n(-c2ccc(C[C@H](NC(=O)c3c(Cl)cccc3Cl)C(=O)O)cc2)c(=O)c2cc(CN3CCOCC3)ccc21 [Example 53]
14.2 | CCN(CC)Cc1ccc2c(c1)c(=O)n(-c1ccc(C[C@H](NC(=O)c3c(Cl)cccc3Cl)C(=O)O)cc1)c(=O)n2C [Example 55]
13.1 | Cn1c(=O)n(-c2ccc(C[C@H](NC(=O)c3c(Cl)cccc3Cl)C(=O)O)cc2)c(=O)c2cc(CN3CCCC3)ccc21 [Example 56]
16.6 | Cn1c(=O)n(-c2ccc(C[C@H](NC(=O)c3c(Cl)cccc3Cl)C(=O)O)cc2)c(=O)c2cc(CN3CCCCC3)ccc21 [Example 57]
25.5 | Cn1c(=O)n(-c2ccc(C[C@H](NC(=O)c3c(Cl)cccc3Cl)C(=O)O)cc2)c(=O)c2cc(CO)ccc21 [Example 60]
